Source: patent US5834452A, “1- or 6-hydroxylated steroids” (Roussel Uclaf, priority 1996, dated 1998)

Biological target: T1, Human mineralocorticoid receptor (HMR) (Homo sapiens, UniProt P08235)
T1 construct: made in house; host or cells: SF9 insect cells (baculovirus), lysate supernatant
T1 sequence (P08235 1-984): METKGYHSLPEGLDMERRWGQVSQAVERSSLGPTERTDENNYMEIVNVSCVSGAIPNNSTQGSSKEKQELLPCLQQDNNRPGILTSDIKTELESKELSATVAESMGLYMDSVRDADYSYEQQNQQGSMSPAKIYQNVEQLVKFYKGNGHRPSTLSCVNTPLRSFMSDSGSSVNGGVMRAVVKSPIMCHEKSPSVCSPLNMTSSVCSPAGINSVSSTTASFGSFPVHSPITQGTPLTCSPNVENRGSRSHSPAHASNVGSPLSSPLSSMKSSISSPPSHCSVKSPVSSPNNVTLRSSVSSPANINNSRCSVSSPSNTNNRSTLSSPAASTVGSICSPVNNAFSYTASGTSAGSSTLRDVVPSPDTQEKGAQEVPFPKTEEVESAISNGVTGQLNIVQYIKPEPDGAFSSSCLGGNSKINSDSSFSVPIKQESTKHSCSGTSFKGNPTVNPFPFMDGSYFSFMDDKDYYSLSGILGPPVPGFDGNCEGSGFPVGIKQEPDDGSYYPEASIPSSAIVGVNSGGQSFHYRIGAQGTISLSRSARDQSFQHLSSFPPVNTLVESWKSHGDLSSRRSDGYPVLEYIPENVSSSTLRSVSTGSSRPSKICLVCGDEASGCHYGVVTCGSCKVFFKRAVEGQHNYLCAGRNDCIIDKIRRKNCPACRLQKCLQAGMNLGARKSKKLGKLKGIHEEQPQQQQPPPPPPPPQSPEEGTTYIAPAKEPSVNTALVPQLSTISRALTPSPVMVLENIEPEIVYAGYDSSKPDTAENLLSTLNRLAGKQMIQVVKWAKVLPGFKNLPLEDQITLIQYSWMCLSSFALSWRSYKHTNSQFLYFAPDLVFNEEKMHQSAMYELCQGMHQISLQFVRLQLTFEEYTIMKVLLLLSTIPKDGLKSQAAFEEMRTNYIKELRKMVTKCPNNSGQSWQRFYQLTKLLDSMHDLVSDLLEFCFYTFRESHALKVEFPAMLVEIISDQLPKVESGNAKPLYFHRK
Experiment: Relative bond affinity (RBA), recombinant human mineralocorticoid receptor, charcoal dextran technique
Type: binding
Settings: 24 h at 0° C.; Aldosterone = 100
Description: The human recombinant receptor (HGR, HPR, HAR, HMR, HER) was used.
Human mineralocorticoid receptor (HMR):
A supernatant of SF9 cells containing the recombinant human mineralocorticoid receptor was obtained according to the process described above for the progestogen receptor using the cDNA fragment described by Baulieu et al (Proc. Natl. Acad. Sci., (1991), Vol. 88, p. 10681-10685) containing the region coding for the human mineralocorticoid receptor. The cells obtained were lysed in the lysis buffer (4). The supernatant was incubated at 0° C. for 24 hours with a constant concentration (T) of tritiated aldosterone in the presence of increasing concentrations of either unlabelled aldosterone (0 to 1000×10^-9 M), or the unlabelled product to be tested (1 to 25000×10^-9 M). The concentration of bound tritiated aldosterone (B) was then measured in each incubate using the charcoal dextran adsorption technique.
Calculation of the relative bond affinity (RBA).
The following two curves were drawn: the percentage of bound tritiated hormone B/BO as a function of the logarithm of the concentration of unlabelled reference hormone or as a function of the logarithm of the concentration of unlabelled test product. The straight line of the following equation was determined: […]
The relative bond affinity (RBA) of the test product was determined by the equation: […]

- RBA, Human mineralocorticoid receptor: no or negligible RBA's
Compound: C[C@H](O)C(=O)[C@@]1(C)CC[C@H]2[C@@H]3C[C@@H](O)C4=CC(=O)CCC4=C3CC[C@@]21C [Product B, [6β, 17β-(S)]-6-hydroxy-17-(2-hydroxy-1-oxopropyl)-17-methyl-Δ^4,9-estradiene-3-one]
